Test results from patent US9403822B2, “Apoptosis-inducing agents for the treatment of cancer and immune and autoimmune diseases” (AbbVie Inc., priority 2010, dated 2016).
Where two headings read alike, the source gives them in different places.

What was measured:
GST-Bcl-2 = GST-Bcl-2 (Homo sapiens (Human), UniProt P10415); assay: Time Resolved-Fluorescence Resonance Energy Transfer (TR-FRET) Bcl-2 binding assay; conditions: F-Bak peptide probe 100 nM, GST-Bcl-2 1 nM, Tb-anti-GST 1 nM; Wang's equation
Chain of GST-Bcl-2 (P10415 whole entry): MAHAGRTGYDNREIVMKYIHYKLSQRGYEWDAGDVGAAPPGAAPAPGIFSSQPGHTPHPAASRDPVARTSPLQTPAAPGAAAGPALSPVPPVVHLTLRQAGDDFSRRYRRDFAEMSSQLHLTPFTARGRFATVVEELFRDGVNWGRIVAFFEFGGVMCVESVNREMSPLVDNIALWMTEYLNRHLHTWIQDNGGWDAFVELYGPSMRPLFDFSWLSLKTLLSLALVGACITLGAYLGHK
Method: Determination of the utility of compounds having Formula (I) as binders to and inhibitors of anti-apoptotic Bcl-2 proteins was performed using the Time Resolved-Fluorescence Resonance Energy Transfer (TR-FRET) Assay. Tb-anti-GST antibody was purchased from Invitrogen (Catalog No. PV4216). Representative compounds were serially diluted in dimethyl sulfoxide (DMSO) starting at 50 μM (2× starting concentration; 10% DMSO) and 10 μL were transferred into a 384-well plate. […] For each assay, the probe/antibody and protein/probe/antibody were included on each assay plate as negative and positive controls, respectively. Fluorescence was measured on the ENVISION plate reader (Perkin Elmer) using a 340/35 nm excitation filter and 520/525 (F-Bak peptide) and 495/510 nm (Tb-labeled anti-Histidine antibody) emission filters. Inhibition constants (Ki) are shown in TABLE 2 below and were determined using Wang's equation (Wang Z.-X. An Exact Mathematical Expression For Describing Competitive Binding Of Two Different Ligands To A Protein Molecule. FEBS Lett. 1995, 360:111-4).

RS4;11 cells = assay: RS4;11 cell viability assay (CellTiter Glo); type: cell-based; conditions: acute lymphoblastic leukemia cell line RS4;11, 10% human serum, 48 hours
Excerpt: The acute lymphoblastic leukemia (ALL) cell line RS4;11 was used as the primary human cell line to assess the cellular activity of Bcl-2 selective agents in vitro and their efficacy in vivo. Previous studies have shown by BH3 profiling, a mitochondrial assay that classifies blocks in the intrinsic apoptotic pathway, that RS4;11 cells were highly dependant on BCL-2 for survival and sensitive to the Bcl-2 family member inhibitor ABT-737 (Blood, 2008, Vol. III, 2300-2309).
RS4;11 cells were cultured in RPMI-1640 supplemented with 2 mM L-glutamine, 10% FBS, 1 mM sodium pyruvate, 2 mM HEPES, 1% penicillin/streptomycin (Invitrogen), 4.5 g/L glucose and maintained at 37 C containing 5% CO2. To test for the cellular activity of compounds in vitro, cells were treated at 50,000 cells per well in 96-well microliter plates in the presence of 10% human serum for 48 hours in a humidified chamber with 5% CO2. Cell cytotoxicity EC50 values were assessed using CellTiter Glo (Promega) according to the manufacturers recommendations. The EC50 values were determined as a percentage of viable cells following treatment compared to the untreated control cells.

[1] = Solubility determination in aqueous media; conditions: for solubility: phosphate buffer, pH 7.4, aqueous buffer, thermodynamic from solid
Method: Reagents used included 0.1 N HCl, J T Baker Lot G08515; and 50 mM Phosphate pH 7.4, μ=0.155 w/NaCl, NB93214-089, Equipment/Instruments used included balance: Mettler Toledo, UMX2, LC805269; Rainin Pipette; 1000 μL RF09683 μL, 200 μL, RF20783; water bath: Vankel, LC 954896, set at 25° C. and 25 RPM, Thermometer: TB085699); and water bath: Vankel, LC 127535, set at 37° C. and 25 RPM, Thermometer: TB096544).
Examples were tested in aqueous media at 25° C. or 37° C. Excess amount of the bulk drug was weighed out and mixed with an aliquot of target media in a clear glass vial. The vial was sealed with cap and wrapped with aluminum foil, then tumbled in a 25° C. or 37° C. water bath as appropriate. When equilibration was completed, she samples were removed from the water bath and the final pH's were measured. The suspensions were filtered through 4 mm, 0.2 μm Millex-LG syringe filters (hydrophilic PTFE membrane, Millipore, Lot N9JN70696). Each filter was used only for one sample and the first three droplets were discarded. The filtrate was assayed after appropriate dilution with the same solvent as used for stock solution. Three replicates were prepared. The concentration of the sample was calculated against the calibration curve for the compound.

| Compound | Ki (GST-Bcl-2) | EC50 (RS4;11 cells) | Aqueous Solubility (pH 7.4) | Aqueous Solubility (pH 7.4) ([1]; 50 mM phosphate pH 7.4, 25° C. or 37° C.) | solubility [1] |
| --- | --- | --- | --- | --- | --- |
| 3-[(4-{[4-(4-{[2-(4-chlorophenyl)-4,4-dimethylcyclohex-1-en-1-yl]methyl}piperazin-1-yl)-2-(1H-pyrrolo[2,3-b]pyridin-5-yloxy)benzoyl]sulfamoyl}-2-nitrophenyl)amino]-2,2-dimethylpropyl dihydrogen phosphate [Example 4] | < 0.01 nM | > 1000 nM | 169 ug/mL |  |  |
| CO[C@H]1CC[C@H](CNc2ccc(S(=O)(=O)NC(=O)c3ccc(N4CCN(CC5=C(c6ccc(Cl)cc6)CC(C)(C)CC5)CC4)cc3Oc3cc4ccnc-4n(COP(=O)(O)O)c3)cc2[N+](=O)[O-])CC1 [Example 1, {5-[5-(4-{[2-(4-chlorophenyl)-4,4-dimethylcyclohex-1-en-1-yl]methyl}piperazin-1-yl)-2-{[(4-{[(trans-4-methoxycyclohexyl)methyl]amino}-3-nitrophenyl)sulfonyl]carbamoyl}phenoxy]-7H-pyrrolo[2,3-b]pyridin-7-yl}methyl dihydrogen phosphate] | < 0.01 nM | 310 nM |  | >1159 ug/mL |  |
| CO[C@H]1CC[C@H](CNc2ccc(S(=O)(=O)NC(=O)c3ccc(N4CCN(CC5=C(c6ccc(Cl)cc6)CC(C)(C)CC5)CC4)cc3Oc3cnc4[nH]ccc4c3)cc2[N+](=O)[O-])CC1 [Example 1M, Trans-4-(4-{[2-(4-chlorophenyl)-4,4-dimethylcyclohex-1-en-1-yl]methyl}piperazin-1-yl)-N-[(4-{[(4-methoxycyclohexyl)methyl]amino}-3-nitrophenyl)sulfonyl]-2-(1H-pyrrolo[2,3-b]pyridin-5-yloxy)benzamide] |  |  |  |  | < 1 µg/mL |
| CC1(C)CCC(CN2CCN(c3ccc(C(=O)NS(=O)(=O)c4ccc(NCC5CCOCC5)c([N+](=O)[O-])c4)c(Oc4cnc5[nH]ccc5c4)c3)CC2)=C(c2ccc(Cl)cc2)C1 [Example 2B, 4-(4-{[2-(4-chlorophenyl)-4,4-dimethylcyclohex-1-en-1-yl]methyl}piperazin-1-yl)-N-({3-nitro-4-[(tetrahydro-2H-pyran-4-ylmethyl)amino]phenyl}sulfonyl)-2-(1H-pyrrolo[2,3-b]pyridin-5-yloxy)benzamide] |  |  |  |  | < 4 µg/mL |
| CC1(C)CCC(CN2CCN(c3ccc(C(=O)NS(=O)(=O)c4ccc(OCC5(F)CCOCC5)c([N+](=O)[O-])c4)c(Oc4cnc5[nH]ccc5c4)c3)CC2)=C(c2ccc(Cl)cc2)C1 [Example 3E, 4-(4-{[2-(4-chlorophenyl)-4,4-dimethylcyclohex-1-en-1-yl]methyl}piperazin-1-yl)-N-({4-[(4-fluorotetrahydro-2H-pyran-4-yl)methoxy]-3-nitrophenyl}sulfonyl)-2-(1H-pyrrolo[2,3-b]pyridin-5-yloxy)benzamide] |  |  |  |  | < 1 µg/mL |
| CC(C)(CO)CNc1ccc(S(=O)(=O)NC(=O)c2ccc(N3CCN(CC4=C(c5ccc(Cl)cc5)CC(C)(C)CC4)CC3)cc2Oc2cnc3[nH]ccc3c2)cc1[N+](=O)[O-] [Example 6, 4-(4-{[2-(4-chlorophenyl)-4,4-dimethylcyclohex-1-en-1-yl]methyl}piperazin-1-yl)-N-({4-[(3-hydroxy-2,2-dimethylpropyl)amino]-3-nitrophenyl}sulfonyl)-2-(1H-pyrrolo[2,3-b]pyridin-5-yloxy)benzamide] |  |  |  |  | < 1 µg/mL |
| CC1(C)CCC(CN2CCN(c3ccc(C(=O)NS(=O)(=O)c4ccc(OC[C@H]5CC[C@H](O)CC5)c([N+](=O)[O-])c4)c(Oc4cnc5[nH]ccc5c4)c3)CC2)=C(c2ccc(Cl)cc2)C1 [Example 7, Trans-4-(4-{[2-(4-chlorophenyl)-4,4-dimethylcyclohex-1-en-1-yl]methyl}piperazin-1-yl)-N-({4-[(4 hydroxycyclohexyl)methoxy]-3-nitrophenyl}sulfonyl)-2-(1H-pyrrolo[2,3-b]pyridin-5-yloxy)benzamide] |  |  |  |  | < 1 µg/mL |
| (5-{5-(4-{[2-(4-chlorophenyl)-4,4-dimethylcyclohex-1-en-1-yl]methyl}piperazin-1-yl)-2-[({3-nitro-4-[(tetrahydro-2H-pyran-4-ylmethyl)amino]phenyl}sulfonyl)carbamoyl]phenoxy}-7H-pyrrolo[2,3-b]pyridin-7-yl)methyl dihydrogen phosphate [Example 2] | < 0.01 nM | 180 nM | >4820 ug/mL |  |  |
| (5-{5-(4-{[2-(4-chlorophenyl)-4,4-dimethylcyclohex-1-en-1-yl]methyl}piperazin-1-yl)-2-[({4-[(4-fluorotetrahydro-2H-pyran-4-yl)methoxy]-3-nitrophenyl}sulfonyl)carbamoyl]phenoxy}-7H-pyrrolo[2,3-b]pyridin-7-yl)methyl dihydrogen phosphate [Example 3] |  | 41 nM | >10850 ug/mL |  |  |
| trans-4-[(4-{[4-(4-{[2-(4-chlorophenyl)-4,4-dimethylcyclohex-1-en-1-yl]methyl}piperazin-1-yl)-2-(1H-pyrrolo[2,3-b]pyridin-5-yloxy)benzoyl]sulfamoyl}-2-nitrophenoxy)methyl]cyclohexyl dihydrogen phosphate [Example 5] |  | 42 nM | >6580 ug/mL |  |  |
